Assay results taken from US4898870A, “Pyrroloquinoline quinone compounds useful as an enzyme inhibitor” (Sogo Pharmaceutical Company Limited, priority 1986, dated 1990).

Tests used:
Format in all cases: biochemical
[1] = system: chick lens aldose reductase; test: Inhibition of chick lens aldose reductase
Procedure: The activity of aldose reductase was measured according to the method of Kinoshita et al. [Metabolism, 28, 462-469 (1979)] using a homogenate of chick lens.
(§1) To a reaction solution containing the chick lens homogenate, Li2 SO4, NADPH2 and an inhibitor, was added dlglyceraldehyde as substrate to start the reaction, and the enzymatic activity was determined by measuring the decrease in optical density (OD) of NADPH2 at 340 nm after five minutes. A solution with no substrate added was used for the blank test. The inhibition rate against the aldose reductase reaction was calculated from the following equation: [formula]
An enzyme solution was prepared from chick lens in the same manner as in Test Example 4, and the inhibitory action of PQQ·H2 against aldose reductase was measured in the same way as in Test Example 4.
An enzyme solution was prepared from chick lens in the same manner as in Test Example 4, and the inhibitory action of PQQ·3Me against aldose reductase was measured in the same way as in Test Example 4.

[2] = target: T1, rat lens aldose reductase (Rattus norvegicus, UniProt P07943); test: Inhibition of rat lens aldose reductase (NADPH2 OD decrease at 340 nm)
T1 construct: A homogenate of rat lens was used; from tissue; host or cells: rat lens (crude homogenate; in later tests the 3,000 rpm supernatant)
Procedure: A homogenate of rat lens was used and the activity of aldose reductase was measured by the method of Kinoshita, et. al. (Kinoshita J. H., et al, Metabolism, 28, 462-469, (1979)).
(§2) Specifically reaction was started by adding dl-glyceraldehyde as a substrate to a reaction solution containing rat lens homogenate, Li2 SO4, NADPH2 and inhibitor, and the enzyme activity was measured by the decrease of the optical absorption of NADPH2 (optical density: OD) at 340 nm for 5 min. The solution with no addition of the substrate was used for the blank OD. The inhibiting ratio for the aldose reductase reaction by the inhibitor was determined by the following equation: [formula]
as §1
A homogenate of rat lens was centrifuged for four minutes at 3,000 rpm under cooling, the supernatant was collected as an enzyme solution, and the inhibitory action of PQQ·H2 against aldose reductase was measured in the same way as in Test Example 4.
An enzyme solution was prepared from rat lens in the same manner as in Test Example 10, and the inhibitory action of PQQ·3Me against rat lens aldose reductase was measured in the same way as in Test Example 4.

[3] = target: T2, bovine lens aldose reductase (Bos taurus, UniProt P16116); test: Inhibition of bovine lens aldose reductase
T2 construct: A homogenate of bovine lens was centrifuged for ten minutes at 20,000 rpm under cooling; from tissue; host or cells: bovine lens (20,000 rpm supernatant of homogenate)
Procedure: as §2
The determination of enzyme activity was same as in Test Example 1 except enzyme source was bovine lens.
as §1
A homogenate of bovine lens was centrifuged for ten minutes at 20,000 rpm under cooling, the supernatant was collected as an enzyme solution, and the inhibitory action of PQQ against aldose reductase was measured in the same way as in Test Example 4.
A homogenate of bovine lens was centrifuged for ten minutes at 20,000 rpm under cooling, the supernatant was collected as an enzyme solution, and the inhibitory action of PQQ·H2 against bovine lens aldose reductase was measured in the same way as in Test Example 4.
An enzyme solution was prepared from chick lens in the same manner as in Test Example 9, and the inhibitory action of PQQ·3Me against bovine lens aldose reductase was measured in the same way as in Test Example 4.

[4] = target: T3, human placental aldose reductase (Homo sapiens, UniProt P15121); test: Inhibition of human placental aldose reductase
T3 construct: An enzyme solution was prepared from human placenta; from tissue; host or cells: human placenta
Procedure: as §2
The determination of enzyme activity was same as in Test Example 1 except enzyme source was human placenta.
as §1
An enzyme solution was prepared from human placenta, and the inhibitory action of PQQ·2K against human placental aldose reductase was measured in the same way as in Test Example 4.
An enzyme solution was prepared from human placenta, and the inhibitory action of PQQ·3Me against human placental aldose reductase was measured in the same way as in Test Example 4.
An enzyme solution was prepared from human placenta, and the inhibitory action of PQQ·2Me.Et against human placental aldose reductase was measured in the same way as in Test Example 4.

[5] = inhibitor 10^-6 M/reaction soln.
[6] = inhibitor 10^-7 M/reaction soln.
[7] = inhibitor 10^-5 M/reaction soln., read-out: Inhibition Rate
[8] = inhibitor 10^-6 M/reaction soln., read-out: Inhibition Rate

Molecule: O=C(O)c1cc(C(=O)O)c2c(n1)c(O)c(O)c1cc(C(=O)O)[nH]c12 [PQQ.H2, PQQ reduced form]
- concentration inhibiting the activity by 100% ([1]; chick lens): 60 µM
- IC50 ([1]; chick lens homogenate, read-out: concentration inhibiting the aldose reductase activity by 50%): 6 µM
- Inhibition Rate ([1]; inhibitor 2 × 10^-5 M/reaction soln.): 68.4%
- Inhibition Rate ([1]; inhibitor 4 × 10^-5 M/reaction soln.): 92.8%
- Inhibition Rate ([1]; inhibitor 6 × 10^-5 M/reaction soln.): 100%
- Inhibition Rate ([1]; inhibitor 8 × 10^-5 M/reaction soln.): 100%
- Inhibition Rate ([1]; inhibitor 10^-4 M/reaction soln.): 100%
- Inhibition Rate ([1]; inhibitor 10^-5 M/reaction soln.): 62.1%
- Inhibition Rate [1, 5]: 31.8%
- Inhibition Rate [1, 6]: 0%
- inhibition at 20 µM ([2]; inhibitor 2 × 10^-5 M/reaction soln., read-out: Inhibition Rate): 100%
- inhibition at 10 µM [2, 7]: 59.5%
- inhibition at 1 µM [2, 8]: 15.1%
- Inhibition Rate ([2]; inhibitor concentration not printed (first line of Table 11)): 0%
- IC50 ([2]; rat lens homogenate, substrate dl-glyceraldehyde): 8.5 µM
- IC100 ([2]; rat lens, read-out: concentration inhibiting the activity by 100%): 20 µM
- IC50 ([3]; bovine lens enzyme): 5 µM
- IC100 ([3]; bovine lens, read-out: concentration inhibiting the activity by 100%): 8 µM
- inhibition at 4 µM ([3]; inhibitor 4 × 10^-6 M/reaction soln., read-out: Inhibition Rate): 27.8%
- inhibition at 6 µM ([3]; inhibitor 6 × 10^-6 M/reaction soln., read-out: Inhibition Rate): 89.9%
- inhibition at 8 µM ([3]; inhibitor 8 × 10^-6 M/reaction soln., read-out: Inhibition Rate): 100%
- inhibition at 100 µM ([3]; inhibitor 10^-4 M/reaction soln., read-out: Inhibition Rate): 100%
- inhibition at 10 µM [3, 7]: 100%
- inhibition at 1 µM [3, 8]: 0%
- inhibition at 0.1 µM ([3]; inhibitor 10^-7 M/reaction soln., read-out: Inhibition Rate): 0%

Molecule: PQQ dimethyl ethyl ester [PQQ.2Me.Et]
- concentration inhibiting the activity by 100% ([4]; human placenta): 2.5 µM
- IC50 ([4]; human placenta enzyme): 0.42 µM
- Inhibition Rate ([4]; inhibitor 1.25 × 10^-6 M/reaction soln.): 97.1%
- Inhibition Rate ([4]; inhibitor 2 × 10^-7 M/reaction soln.): 17.6%
- Inhibition Rate ([4]; inhibitor 2.5 × 10^-6 M/reaction soln.): 100%
- Inhibition Rate ([4]; inhibitor 3 × 10^-7 M/reaction soln.): 29.3%
- Inhibition Rate ([4]; inhibitor 5 × 10^-7 M/reaction soln.): 59.0%
- Inhibition Rate [4, 5]: 91.2%
- Inhibition Rate [4, 6]: 0%
